Data reported in article PMC11940557, “Integration of metabolomics and chemometrics with in-silico and in-vitro approaches to unravel SARS-Cov-2 inhibitors from South African plants” (PLOS One, 2025).
pIC50: −log10 of the molar value.

Target: T1, SARS-CoV-2 3CLpro (3CL protease, MBP-tagged; main protease, Mpro) (Severe acute respiratory syndrome coronavirus 2, UniProt P0DTD1)
T1 construct: gene rep
Assay: fluorogenic protease substrate assay (ex […] / em […] nm)
Assay type: biochemical

| Compound | pIC50 |
| --- | --- |
| CC(=O)O[C@H]1[C@H](Oc2c(-c3ccc(O)c(O)c3)oc3cc(O)cc(O)c3c2=O)O[C@H](CO[C@@H]2O[C@@H](C)[C@H](O)[C@@H](O)[C@H]2O)[C@@H](O)[C@@H]1O [2”-O-acetylrutin] | 7.00 |
| O=C(O)CC(=O)OC[C@H]1O[C@@H](Oc2c(-c3ccc(O)c(O)c3)oc3cc(O)cc(O)c3c2=O)[C@H](O)[C@@H](O)[C@@H]1O [quercetin 3-(6”-malonyl-glucoside)] | 6.77 |
| CC(=O)OC[C@H]1O[C@@H](Oc2c(-c3ccc(O)c(O)c3)oc3cc(O)cc(O)c3c2=O)[C@H](O)[C@@H](O)[C@@H]1O [quercetin 3-O-(6“-acetyl-glucoside)] | 6.92 |
